{"source": "the NIST ThermoML archive (doi:10.1016/j.jct.2009.10.007)", "assay": "refractive index (Na D-line) (dimensionless); mn = molality of the nth substance listed, in mol/kg", "conditions": "308.15 K, 101 kPa, Liquid, Standard Abbe refractometry", "note": "Numbers after ± are expanded uncertainties."}
{"compound": "O=C([O-])CC(O)(CC(=O)[O-])C(=O)[O-].[Na+].[Na+].[Na+]", "note": "[trisodium citrate] + O", "values": [{"measurement": "refractive index", "setting": "m1 = 0.034", "value": "1.3328 ± 0.0005"}, {"measurement": "refractive index", "setting": "m1 = 0.0682", "value": "1.3345 ± 0.0005"}, {"measurement": "refractive index", "setting": "m1 = 0.1015", "value": "1.3361 ± 0.0005"}, {"measurement": "refractive index", "setting": "m1 = 0.1424", "value": "1.3379 ± 0.0005"}, {"measurement": "refractive index", "setting": "m1 = 0.1771", "value": "1.3393 ± 0.0005"}, {"measurement": "refractive index", "setting": "m1 = 0.2157", "value": "1.341 ± 0.0005"}, {"measurement": "refractive index", "setting": "m1 = 0.2524", "value": "1.3425 ± 0.0005"}, {"measurement": "refractive index", "setting": "m1 = 0.2847", "value": "1.3438 ± 0.0005"}, {"measurement": "refractive index", "setting": "m1 = 0.3319", "value": "1.3456 ± 0.0005"}, {"measurement": "refractive index", "setting": "m1 = 0.3674", "value": "1.3469 ± 0.0005"}]}
{"compound": "O", "note": "[water] + O=C([O-])CC(O)(CC(=O)[O-])C(=O)[O-].[Na+].[Na+].[Na+]", "values": [{"measurement": "refractive index", "setting": "m2 = 0", "value": "1.3311 ± 0.0005"}]}
{"compound": "O", "note": "[water] + CCCCn1cc[n+](C)c1.[Br-]", "values": [{"measurement": "refractive index", "setting": "m2 = 0", "value": "1.3311 ± 0.0005"}]}
